# Measured values as given in a melting point compilation (Tetko et al.; mined from patent text by program, amines drawn as free bases though some values may be those of a salt).
row,Structure (SMILES),melting point
1,Cc1ccc(C)c(C(Cl)=NNc2ccccc2)c1,48.5 to 49 °C
2,O=CN[C@H]1CC[C@H](CCN2CCN(c3nccc4c3OCC4)CC2)CC1,154 °C
3,Cc1ccc(-c2ccc(S(N)(=O)=O)cc2)n1-c1ccc(Cl)cc1,152 to 154 °C
4,O=C1C=C(NC(=O)C(=O)c2cn(Cc3ccc(Cl)cc3)c3ccc([N+](=O)[O-])cc23)CO1,248 to 250 °C
5,CC(C)(C)OC(=O)N1CCC(c2ccc(COc3cccc([N+](=O)[O-])c3)nc2)CC1,94 to 96 °C
6,O=C(O)c1ccc(OCCCCCCCCCCO)cc1,115 to 117 °C
7,O=P(O)(O)Cc1ccc(-c2ccccc2)cc1,246 to 248 °C
8,Clc1nc2ccccc2c2c1ncn2Cc1ccncc1,> 300 °C
9,Nc1ccccc1C(=O)NCCCCN1CCC(OC(c2ccccc2)c2ccccc2)CC1,74 to 75 °C
10,O=C(c1cccc(-c2cc3ccccc3n2S(=O)(=O)c2ccccc2)c1)c1cc2ccccc2n1S(=O)(=O)c1ccccc1,189 to 190 °C
11,C=CCSc1ccc(-c2ccccc2)nn1,96 to 98 °C
12,CCCCCCCCCCCCc1nnn(CC(=O)OCC)n1,38 to 40 °C
13,CSC(=S)N(C)N=Cc1ccco1,103 °C
14,O=C(Nc1ccccc1)c1c[nH]c2c1C(=O)CCC2,225 to 226 °C
15,O=C(O)c1ccc(=O)n(CCNC(=O)c2cccnc2)c1,> 295 °C
16,CC(C)(C)OC(=O)NCCNC(=O)c1ccc([N+](=O)[O-])cn1,141 to 142 °C
17,CC1(C2Cc3ccccc3O2)CCCCC1 (stereo not given),60 to 63 °C
18,CCCCCCCCC=CCCCCCCCCCCCC(=O)NC,48 to 49 °C
19,CC(NC(=O)OCc1ccccc1)P(C)(=O)OCc1ccccc1 (stereo not given),108 to 110 °C
20,CC1CN(C)CC(NC(=O)c2n[nH]c3ccccc23)CN1Cc1ccccc1 (stereo not given),164 to 165 °C
21,N#Cc1cccc(C2C3=C(CCS3)NC3=C2SCC3)c1,248 °C
22,CC(C)(C)N1CC=C(c2c[nH]c(-c3ccc(F)cc3)c2-c2ccncc2)CC1,242 to 244 °C
23,CN1CCC(Cc2ccc(Cl)nc2)C1=C[N+](=O)[O-] (stereo not given),141 to 142 °C
24,CC(=O)Cc1ccc2c(c1)C1(C)CCN(C)C1N2C (stereo not given),115 to 125 °C
25,O=C(c1ccc(S(=O)(=O)c2ccc3cc(Cl)ccc3c2)cc1)N1CCN(c2ccncc2)CC1,267 to 269 °C
26,O=C(O)C1=CC2(CCSCC2)Oc2ccc([N+](=O)[O-])cc21,259 to 261 °C
27,N#Cc1ccc(N2C(=O)NC3(CCS(=O)(=O)CC3)C2=O)cc1C(F)(F)F,257 to 258 °C

# More lines, now with the values ahead:
row,melting point,Structure (SMILES)
1,142 °C,COc1cc(-c2nc(C(C)C)no2)cc2oc(=O)c(C)c(C)c12
2,203 to 208 °C,Cc1nccn1-c1cc(NC(=O)OC(C)(C)C)cc(C(F)(F)F)c1
3,172 to 173 °C,COCCCc1ccc2oc(-c3cc4cccn4cn3)cc(=NO)c2c1
4,198 to 200 °C,CCCOC(=O)c1cc(C(=O)Nc2ccccc2O)cc(Br)c1O
5,168 to 169 °C,Cc1nc2c(Cl)c(NC(=O)c3ccc(-c4ccccc4)cc3)ccc2s1
6,131 to 132 °C,O=C(c1ccc(F)nc1)N1CCC[C@H](c2nc(-c3ccc[nH]3)no2)C1
7,128 to 130 °C,CCCCCNC(=O)C(C)Cc1ccc2c(c1)c(Cc1ccc(C(=O)OC)cc1OC)cn2C (stereo not given)
8,153 to 154 °C,COCCOc1ccccc1-c1cc(Nc2cccc(S(C)(=O)=O)c2)ncn1
9,193 to 194 °C,Cc1c(-c2ccc(C#N)cc2)c(C#N)c(C2CC2)n1Cc1cnc(Cl)c(CO)c1
10,147 to 150 °C,O=C(O)C1CCCc2c(-c3ccc(Cl)cc3)noc2CC1 (stereo not given)
11,180 to 182 °C,Cn1nncc1-c1cc(C=O)c2occc2c1
12,169 to 173 °C,CC(C)COC(=O)N1CCC(c2ccc3oc(-c4ccc(S(C)(=O)=O)cc4F)nc3c2)CC1
13,129 to 132 °C,COc1cc2c(c(Cl)c1Cl)SC(C1CCCC1)C2O (stereo not given)
14,> 300 °C,CC1(C)C(=O)Nc2ccc(C3=NNC(=O)CC3)cc21
15,153 to 156 °C,COc1cc(C)nc(CNC(=O)NS(=O)(=O)c2ccccc2S(=O)(=O)N(C)C)n1
16,246 °C,CCOC(=O)c1cc(Br)cc2c(=O)cc(-c3cccc(OCc4ncc5ccccc5n4)c3)oc12
17,> 300 °C,O=C(O)c1cn2c3c(c(F)c(F)cc3c1=O)OCC2
18,102 to 104 °C,COC(=O)c1cc(C(=O)OC)c(Br)cn1
19,89 to 90 °C,CC(C)(C)c1cc(Br)c(C(C)(C)C)cc1N
20,246 °C,O=c1[nH]c2ccc(C(c3ccc(Cl)cc3)n3ccnc3-c3ccccc3)cc2c(Oc2cccc(Cl)c2)c1CO (stereo not given)
21,98 to 100 °C,COC(=O)CN(CCNC(=O)OC(C)(C)C)C(=O)Cc1cc2ccc(C)nc2[nH]c1=O
22,249 °C,O=C1CNc2ncc(I)cc2N1Cc1cccnc1Cl
23,289 to 291 °C,Nc1ccccc1CCc1n[nH]c2c1c(=O)n(-c1ccccc1)c1ncccc21
